# Experimental data as given in patent publication US20080214398A1, “Herbicidal activities of combinations of sodium azide with sulfur containing and other deactivating compounds” (priority 2005, published 2008).
# “Also recorded” adds a separate entry of the source. Where two headings read alike, the source gives them in different places.
# Assays:
# [1] = tested on: Morningglory (Ipomoea spp.); type: in vivo
# Source text: Compounds: Sodium azide, metam sodium (Vapam HL), EPTC, sodium thiosulfate, and methyl disulfide were delivered in aqueous solutions or emulsions (5% of SEP 100 for sodium azide; 5% for Vapam; 0.25% for EPTC, 2.5% for sodium thiosulfate; 2.5% for methyl disulfide) prepared immediately before use by diluting in demineralized water while stirring with a magnetic stirrer.
# Sources: SEP 100 from American Pacific Corp., metam sodium as Vapam HL (32, 7% a.i.) from AMVAC, EPTC from Gowen, sodium thiosulfate and methyl disulfide from Aldrich.
# Rates: Metam sodium at 163.5 mgs a.i./kg soil-equivalent to 0, and 327 lbs a.i./acre (120 gal Vapam HL/A). Sodium azide at 75 mgs a.i./kg soil equivalent to 150 lbs a.i./A, sodium thiosulfate at 200 and 300 lbs/A; EPTC at 8 and 10 lbs/A, and methyl disulfide at 300 lbs/A.
# All different possible combinations of sodium azide with the other deactivating compounds and their corresponding rates were included in the experiment together with the appropriate controls.
# Application Method and Procedure: Each treatment was delivered by drenching in 100 mls aqueous volume onto the soil surface in pots (10-cm diam; PVC) containing 1 kg soil. The soil was from a cotton field (silt loam; pH 6.2; CEC<10 meq/100 gm soil; org. matter <1.0%). Sodium azide was applied on day one, and the other compounds four days later. Immediately after treatment the pots were covered by a thick (1.5 mil) clear low density polyethylene bag held tight against the outer wall of the pot by a rubber band. Three days after application of “deactivator compounds” the bags were removed and the pots were planted with morningglory seed (25 seed/pot). Counts were taken from each pot (experimental unit) at 10, 13, and 26 days after application of sodium azide. Morningglory plant tops were collected from each pot 33 days after initiation of the experiment and fresh weights were determined.
# Major Pests: Morningglory (Ipomoea spp.)
# Experimental Design: Randomized complete block with seven replications/treatment.
# Statistical Analyses: Anova and Fischer's least significant difference (flsd) at p 0.05. Regression analyses.
# [2] = tested on: annual morningglory (Ipomoea spp.); type: in vivo
# Source text: The effects on herbicidal activity of combinations of SEP 100 (Na azide) with metam Na, Na thiosulfate, methyl disulfide and the herbicide EPTC (Eptam 7E, Eradicane 6.7E) were studied in greenhouse experiments. In a first experiment SEP 100 was applied by drenching (1″ acre water) at 150 lbs a.i./A to pots (4 inch diam; PVC) containing each 2.2 pounds of silt loam (pH 6.2; org. matter <1.0%) from a cotton field. Immediately after treatment each pot was covered with a clear polyethylene bag (1.5 mil). The bags were removed 4 days after, and additional applications were drenched in with: Vapam HL, at 120 gal/A; EPTC at 8 and 10 lbs ai/A; Na thiosulfate at 200 and 300 lbs ai/A; and methyl disulfide at 300 lbs ai/A. Pots were again covered with the bags for 3 days after which they were removed and pots planted with annual morningglory (Ipomoea spp.; 25 seed/pot). Some pots received only SEP 100 and others received water only. Each treatment was represented by 7 pots (experimental units) arranged in a randomized complete block design on a bench. The number of plants in each pot was determined at 10, 13, and 26 days after application of SEP 100. Momingglory plant tops were collected from each pot 33 days after initiation of the experiment and their fresh weight was determined.
# morningglory [3] = experiment: Example 2 greenhouse pot experiment, fixed Vapam HL rate with SEP 100 rates; type: in vivo, Ipomoea spp.; conditions: Vapam HL 60 gal/A on soil treated with SEP 100 40-120 lbs a.i./A
# Source text: The effects on herbicidal activity of combinations of SEP 100 (Na azide) with metam Na, Na thiosulfate, methyl disulfide and the herbicide EPTC (Eptam 7E, Eradicane 6.7E) were studied in greenhouse experiments. In a first experiment SEP 100 was applied by drenching (1″ acre water) at 150 lbs a.i./A to pots (4 inch diam; PVC) containing each 2.2 pounds of silt loam (pH 6.2; org. matter <1.0%) from a cotton field. Immediately after treatment each pot was covered with a clear polyethylene bag (1.5 mil). […] The number of plants in each pot was determined at 10, 13, and 26 days after application of SEP 100. Momingglory plant tops were collected from each pot 33 days after initiation of the experiment and their fresh weight was determined.
# A second experiment explored the interaction between a fixed rate of Vapam HL (60 gal/A) and applications of SEP 100 in the 40-120 lbs a.i./A range. The methods and procedure followed were as for the first experiment except that weed counts were taken at 13 and 17 days after application and plant top weights were determined 32 days after initiation of the experiment.
# morningglory [4] = tested on: morningglory
# Source text: Compounds: sodium azide and metam sodium (Vapam HL) were delivered in aqueous solutions (1.0% of SEP 100 for sodium azide; 5% for Vapam) prepared immediately before use by diluting in demineralized water while stirring with a magnetic stirrer.
# Source: SEP 100 from American Pacific Corp., and metam sodium as Vapam HL (32, 7% a.i.) from AMVAC.
# Rates: Metam sodium at 0, and 82 mgs a.i./kg soil-equivalent to 0, and 60 gal/A. Sodium azide at 0, 20, 40 and 60 mgs a.i./kg soil equivalent to 0, 40, 80, and 120 lbs a.i./A, respectively. Each metam sodium rate was applied to soil in combination with each sodium azide dose.
# warm season turf species = conditions: cited from earlier work
# [5] = applied 4 days after sodium azide 150 lbs a.i./A, metam sodium 327 lbs a.i./acre, sodium thiosulfate 200 and 300 lbs/A, methyl disulfide 300 lbs/A, 10, 13, 26 days
structure (smiles),measurement,setting,value
"CCCN(CCC)C(=O)SCC [EPTC, S-ethyl dipropylthiocarbamate]",herbicidal activity against morningglory,"[1]; EPTC 8 and 10 lbs/A, sodium azide 150 lbs a.i./A",strongly herbicidal
same,herbicidal activity against morningglory,"[2]; EPTC 8 and 10 lbs ai/A, SEP 100 150 lbs a.i./A",strongly herbicidal
"CNC(=S)S [metam sodium, sodium methyl dithiocarbamate]",effect on morningglory top weights (FIG. 2B),morningglory [3]; 32 days,diminished herbicidal activity of sodium azide
same,"effect on herbicidal activity of Na azide (number of morningglory plants, FIG. 2A)",morningglory [3]; counts at 13 and 17 days,diminishes the herbicidal activity of sodium azide
same,"effect on herbicidal activity of sodium azide (number of morningglory plants per pot, FIGS. 3A-3C)",[1]; [5],significantly reduced the herbicidal activity of sodium azide; also recorded: nullified the herbicidal activity of sodium azide
same,morningglory growth / top weights (FIG. 3D),"[1]; sodium azide 150 lbs a.i./A, then metam sodium 327 lbs a.i./acre, 33 days",synergistic beneficial effects
same,effect on morningglory top weights,morningglory [4]; metam sodium 60 gal/A on soil previously treated with sodium azide,synergistic beneficial effects
same,"effect on herbicidal activity of sodium azide (number of morningglory plants per pot, FIGS. 4A-4C)","morningglory [4]; metam sodium 60 gal/A with sodium azide 0, 40, 80, 120 lbs a.i./A, 13, 17, 30 days",nullified the herbicidal activity of sodium azide
CSSC [methyl disulfide],"effect on herbicidal activity of sodium azide (number of morningglory plants per pot, FIGS. 3A-3C)",[1]; [5],inconclusive
same,"effect on herbicidal activity of Na azide (number of morningglory plants, FIG. 1A)","[2]; applied 4 days after SEP 100 150 lbs a.i./A, Vapam HL 120 gal/A, Na thiosulfate 200 and 300 lbs ai/A, methyl disulfide 300 lbs ai/A, counts at 10, 13, 26 days",little effect
[N-]=[N+]=[N-] [sodium azide],plant back interval required for successful establishment,warm season turf species,3-4 weeks
O=S([O-])([O-])=S.[Na+].[Na+] [sodium thiosulfate],"effect on herbicidal activity of sodium azide (number of morningglory plants per pot, FIGS. 3A-3C)",[1]; in vivo,inconclusive
same,"effect on herbicidal activity of Na azide (number of morningglory plants, FIG. 1A)",[2]; in vivo,little effect
